# Data as given in PMC5574958, “Radiosynthesis and Preclinical Evaluation of [^18F]F-DPA, A Novel Pyrazolo[1,5a]pyrimidine Acetamide TSPO Radioligand, in Healthy Sprague Dawley Rats” (Molecular Imaging and Biology, 2017).
# pKi: −log10 of the molar value.
# Experiments:
# CBR = conditions: read-out: K i CBR (selectivity); cited from earlier work
# TSPO = conditions: read-out: K i (TSPO affinity); cited from earlier work
# [1] = RadioTLC analyses of radiometabolites in plasma and brain homogenates; format: in vivo, Sprague Dawley rats; conditions: 90 min after injection, n = 3
# Experimental: The blood samples were taken into Li-heparin tubes and centrifuged (3000×g, 10 min). The plasma was transferred to an Eppendorf tube and the plasma proteins were precipitated by addition of 1.5 parts of MeOH by volume. Following a further centrifugation (12,000×g, 4 min), 20 μl of the supernatant was spotted onto an aluminum-backed silica gel 60/Kieselguhr F254 TLC plate (EMD Millipore 1.05567.0001, Merck Millipore, Darmstadt, Germany).
# Brain samples from the cortex were homogenized with approximately 200 μl of 1:1 v/v of MeOH and water; the mixture was transferred to an Eppendorf tube and centrifuged (12,000×g, 4 min). An aliquot (20 μl) of the supernatant was spotted onto the TLC plate.
# The TLC plates were developed with a mixture of dichloromethane and methanol (9:1, v/v) for a distance of 6 cm. Following this, the plates were exposed onto an imaging plate (Fuji BAS Imaging Plate TR2025, Fuji Photo Film Co., Ltd., Tokyo, Japan) for approximately two half-lives of fluorine-18 (3.5 to 4 h). After the exposure, the imaging plates were scanned using a BAS-5000 reader (Fuji, Japan) with a resolution of 50 μm and the saved images were analyzed using TINA software (version 2.10 g, Raytest, Isotopenmessgeräte, GmbH, Straubenhardt, Germany).
# Ex vivo biodistribution = format: in vivo, Sprague Dawley rats; conditions: for Uptake of fluorine-18-radioactivity, Harderian gland / Uptake of fluorine-18-radioactivity, Brain / Uptake of fluorine-18-radioactivity, Brown fat / Uptake of fluorine-18-radioactivity, Eye x2 / Uptake of fluorine-18-radioactivity, Injection site (tail) / Uptake of fluorine-18-radioactivity, Large int. Wall + contents / Uptake of fluorine-18-radioactivity, Liver / Uptake of fluorine-18-radioactivity, Lung / Uptake of fluorine-18-radioactivity, Muscle / Uptake of fluorine-18-radioactivity, Salivary x2 / Uptake of fluorine-18-radioactivity, Small int. wall + contents / Uptake of fluorine-18-radioactivity, Stomach wall + contents / Uptake of fluorine-18-radioactivity, Testis: mean, n = 3
# Experimental: After sacrifice (5, 15, 30, 60, and 90 min after injection, n = 3, for every time point and radiotracer), the blood was collected into Li-heparin tubes and transcardial perfusion with saline was conducted rapidly in order to eliminate the blood from the whole body. Following this, the organs of the animals were collected, individually weighed, and the radioactivity was measured using a gamma counter (Wizard^2 3 × 3″, PerkinElmer, Turku, Finland). The decay-corrected radioactivity is reported as percentage of injected dose per gram (%ID/g).
# [2] = Plasma protein binding (ultrafiltration of plasma after tracer injection); format: in vivo, Sprague Dawley rats; conditions: 15 min after injection, 30 kDa ultrafiltration, n = 3
# Experimental: After 15 min, the animals were sacrificed and the blood was collected into Li-heparin tubes and centrifuged (3000×g, 10 min). A 10-μl aliquot of the plasma was spotted onto a TLC plate; following this, the remaining plasma was filtered by ultrafiltration using Microsep 30K Omega (Pall Life Sciences, Mexico) with a cut-off of 30 kDa. A 10-μl aliquot of the resulting supernatant was also spotted onto the TLC plate. The plates were exposed onto an imaging plate (Fuji BAS Imaging Plate TR2025, Fuji Photo Film Co., Ltd., Tokyo, Japan) for approximately two half-lives of fluorine-18 (3.5 to 4 h). After the exposure, the imaging plates were scanned using a BAS-5000 reader (Fuji, Japan) with a resolution of 50 μm and the saved images were analyzed using TINA software (version 2.10 g, Raytest, Isotopenmessgeräte, GmbH, Straubenhardt, Germany).
compound,measurement,setting,value
"CCN(CC)C(=O)Cc1c(-c2ccc(F)cc2)nn2c(C)cc(C)nc12 [F-DPA, N,N-Diethyl-2-(2-(4-fluorophenyl)-5,7-dimethylpyrazolo[1,5-a]pyrimidin-3-yl)acetamide]",pKi,CBR,< 6.00
same,pKi,TSPO,8.77
"CCN(CC)C(=O)Cc1c(-c2ccc(OCC[18F])cc2)nn2c(C)cc(C)nc12 [[^18F]DPA-714, reference compound]","Unchanged radiotracer, share of radioactivity in the brain",[1]; brain homogenate,53.6 ± 1.6%
same,"Unchanged radiotracer, share of radioactivity in the plasma",[1]; plasma,11.1 ± 2.6%
same,pKi,CBR,< 6.00
same,"Uptake of fluorine-18-radioactivity, Harderian gland",Ex vivo biodistribution; 5 min after injection,0.40 %ID/g tissue
same,"Uptake of fluorine-18-radioactivity, Harderian gland",Ex vivo biodistribution; 15 min after injection,0.52 %ID/g tissue
same,"Uptake of fluorine-18-radioactivity, Harderian gland",Ex vivo biodistribution; 30 min after injection,0.45 %ID/g tissue
same,"Uptake of fluorine-18-radioactivity, Harderian gland",Ex vivo biodistribution; 60 min after injection,0.54 %ID/g tissue
same,"Uptake of fluorine-18-radioactivity, Harderian gland",Ex vivo biodistribution; 90 min after injection,0.43 %ID/g tissue
same,Accumulation of radioactivity in the bone (defluorination in vivo),"Ex vivo biodistribution; after the initial uptake at 5 min, up to 90 min",no significant accumulation of radioactivity in the bone
same,"Uptake of fluorine-18-radioactivity, Brain",Ex vivo biodistribution; 5 min after injection,0.29 %ID/g tissue
same,"Uptake of fluorine-18-radioactivity, Brain",Ex vivo biodistribution; 15 min after injection,0.17 %ID/g tissue
same,"Uptake of fluorine-18-radioactivity, Brain",Ex vivo biodistribution; 30 min after injection,0.12 %ID/g tissue
same,"Uptake of fluorine-18-radioactivity, Brain",Ex vivo biodistribution; 60 min after injection,0.09 %ID/g tissue
same,"Uptake of fluorine-18-radioactivity, Brain",Ex vivo biodistribution; 90 min after injection,0.08 %ID/g tissue
same,"Uptake of fluorine-18-radioactivity, Brown fat",Ex vivo biodistribution; 5 min after injection,0.22 %ID/g tissue
same,"Uptake of fluorine-18-radioactivity, Brown fat",Ex vivo biodistribution; 15 min after injection,0.31 %ID/g tissue
same,"Uptake of fluorine-18-radioactivity, Brown fat",Ex vivo biodistribution; 30 min after injection,0.51 %ID/g tissue
same,"Uptake of fluorine-18-radioactivity, Brown fat",Ex vivo biodistribution; 60 min after injection,1.07 %ID/g tissue
same,"Uptake of fluorine-18-radioactivity, Brown fat",Ex vivo biodistribution; 90 min after injection,1.25 %ID/g tissue
same,"Uptake of fluorine-18-radioactivity, Eye x2","Ex vivo biodistribution; eye x2, 5 min after injection",0.28 %ID/g tissue
same,"Uptake of fluorine-18-radioactivity, Eye x2","Ex vivo biodistribution; eye x2, 15 min after injection",0.29 %ID/g tissue
same,"Uptake of fluorine-18-radioactivity, Eye x2","Ex vivo biodistribution; eye x2, 30 min after injection",0.26 %ID/g tissue
same,"Uptake of fluorine-18-radioactivity, Eye x2","Ex vivo biodistribution; eye x2, 60 min after injection",0.22 %ID/g tissue
same,"Uptake of fluorine-18-radioactivity, Eye x2","Ex vivo biodistribution; eye x2, 90 min after injection",0.20 %ID/g tissue
same,"Uptake of fluorine-18-radioactivity, Injection site (tail)",Ex vivo biodistribution; 5 min after injection,0.49 %ID/g tissue
same,"Uptake of fluorine-18-radioactivity, Injection site (tail)",Ex vivo biodistribution; 15 min after injection,0.29 %ID/g tissue
same,"Uptake of fluorine-18-radioactivity, Injection site (tail)",Ex vivo biodistribution; 30 min after injection,0.34 %ID/g tissue
same,"Uptake of fluorine-18-radioactivity, Injection site (tail)",Ex vivo biodistribution; 60 min after injection,0.38 %ID/g tissue
same,"Uptake of fluorine-18-radioactivity, Injection site (tail)",Ex vivo biodistribution; 90 min after injection,0.24 %ID/g tissue
same,"Uptake of fluorine-18-radioactivity, Large int. Wall + contents",Ex vivo biodistribution; 5 min after injection,0.20 %ID/g tissue
same,"Uptake of fluorine-18-radioactivity, Large int. Wall + contents",Ex vivo biodistribution; 15 min after injection,0.24 %ID/g tissue
same,"Uptake of fluorine-18-radioactivity, Large int. Wall + contents",Ex vivo biodistribution; 30 min after injection,0.26 %ID/g tissue
same,"Uptake of fluorine-18-radioactivity, Large int. Wall + contents",Ex vivo biodistribution; 60 min after injection,0.41 %ID/g tissue
same,"Uptake of fluorine-18-radioactivity, Large int. Wall + contents",Ex vivo biodistribution; 90 min after injection,0.29 %ID/g tissue
same,"Uptake of fluorine-18-radioactivity, Liver",Ex vivo biodistribution; 5 min after injection,0.78 %ID/g tissue
same,"Uptake of fluorine-18-radioactivity, Liver",Ex vivo biodistribution; 15 min after injection,0.87 %ID/g tissue
same,"Uptake of fluorine-18-radioactivity, Liver",Ex vivo biodistribution; 30 min after injection,0.60 %ID/g tissue
same,"Uptake of fluorine-18-radioactivity, Liver",Ex vivo biodistribution; 60 min after injection,0.37 %ID/g tissue
same,"Uptake of fluorine-18-radioactivity, Liver",Ex vivo biodistribution; 90 min after injection,0.26 %ID/g tissue
same,"Uptake of fluorine-18-radioactivity, Lung",Ex vivo biodistribution; 5 min after injection,19.83 %ID/g tissue
same,"Uptake of fluorine-18-radioactivity, Lung",Ex vivo biodistribution; 15 min after injection,10.24 %ID/g tissue
same,"Uptake of fluorine-18-radioactivity, Lung",Ex vivo biodistribution; 30 min after injection,5.73 %ID/g tissue
same,"Uptake of fluorine-18-radioactivity, Lung",Ex vivo biodistribution; 60 min after injection,3.01 %ID/g tissue
same,"Uptake of fluorine-18-radioactivity, Lung",Ex vivo biodistribution; 90 min after injection,2.00 %ID/g tissue
same,"Uptake of fluorine-18-radioactivity, Muscle",Ex vivo biodistribution; 5 min after injection,0.07 %ID/g tissue
same,"Uptake of fluorine-18-radioactivity, Muscle",Ex vivo biodistribution; 15 min after injection,0.07 %ID/g tissue
same,"Uptake of fluorine-18-radioactivity, Muscle",Ex vivo biodistribution; 30 min after injection,0.11 %ID/g tissue
same,"Uptake of fluorine-18-radioactivity, Muscle",Ex vivo biodistribution; 60 min after injection,0.16 %ID/g tissue
same,"Uptake of fluorine-18-radioactivity, Muscle",Ex vivo biodistribution; 90 min after injection,0.18 %ID/g tissue
same,"Uptake of fluorine-18-radioactivity, Salivary x2","Ex vivo biodistribution; salivary x2, 5 min after injection",0.59 %ID/g tissue
same,"Uptake of fluorine-18-radioactivity, Salivary x2","Ex vivo biodistribution; salivary x2, 15 min after injection",1.34 %ID/g tissue
same,"Uptake of fluorine-18-radioactivity, Salivary x2","Ex vivo biodistribution; salivary x2, 30 min after injection",0.88 %ID/g tissue
same,"Uptake of fluorine-18-radioactivity, Salivary x2","Ex vivo biodistribution; salivary x2, 60 min after injection",1.00 %ID/g tissue
same,"Uptake of fluorine-18-radioactivity, Salivary x2","Ex vivo biodistribution; salivary x2, 90 min after injection",0.89 %ID/g tissue
same,"Uptake of fluorine-18-radioactivity, Small int. wall + contents",Ex vivo biodistribution; 5 min after injection,0.69 %ID/g tissue
same,"Uptake of fluorine-18-radioactivity, Small int. wall + contents",Ex vivo biodistribution; 15 min after injection,1.07 %ID/g tissue
same,"Uptake of fluorine-18-radioactivity, Small int. wall + contents",Ex vivo biodistribution; 30 min after injection,1.44 %ID/g tissue
same,"Uptake of fluorine-18-radioactivity, Small int. wall + contents",Ex vivo biodistribution; 60 min after injection,1.80 %ID/g tissue
same,"Uptake of fluorine-18-radioactivity, Small int. wall + contents",Ex vivo biodistribution; 90 min after injection,2.04 %ID/g tissue
same,"Uptake of fluorine-18-radioactivity, Stomach wall + contents",Ex vivo biodistribution; 5 min after injection,0.27 %ID/g tissue
same,"Uptake of fluorine-18-radioactivity, Stomach wall + contents",Ex vivo biodistribution; 15 min after injection,0.65 %ID/g tissue
same,"Uptake of fluorine-18-radioactivity, Stomach wall + contents",Ex vivo biodistribution; 30 min after injection,0.43 %ID/g tissue
same,"Uptake of fluorine-18-radioactivity, Stomach wall + contents",Ex vivo biodistribution; 60 min after injection,0.33 %ID/g tissue
same,"Uptake of fluorine-18-radioactivity, Stomach wall + contents",Ex vivo biodistribution; 90 min after injection,0.44 %ID/g tissue
same,"Uptake of fluorine-18-radioactivity, Testis",Ex vivo biodistribution; 5 min after injection,0.11 %ID/g tissue
same,"Uptake of fluorine-18-radioactivity, Testis",Ex vivo biodistribution; 15 min after injection,0.10 %ID/g tissue
same,"Uptake of fluorine-18-radioactivity, Testis",Ex vivo biodistribution; 30 min after injection,0.13 %ID/g tissue
same,"Uptake of fluorine-18-radioactivity, Testis",Ex vivo biodistribution; 60 min after injection,0.14 %ID/g tissue
same,"Uptake of fluorine-18-radioactivity, Testis",Ex vivo biodistribution; 90 min after injection,0.14 %ID/g tissue
same,Fraction of radioactivity unbound to the plasma proteins,[2],32.8 ± 8.8%
